Test results: patent US5672582A, “Thrombin inhibitors” (Merck & Co., Inc., priority 1994, dated 1997)
Like-named read-outs stand apart in the source and are kept apart here.

Columns and labels:
[1] = molecular target: human α-thrombin (Homo sapiens, UniProt P00734); test: Proteinase inhibition assay, human α-thrombin; assay type: biochemical; conditions: for Ratio: Ki trypsin / Ki thrombin
Procedure: (§1) Assays of human α-thrombin and bovine trypsin were performed at 25° C. in 0.05M TRIS buffer pH 7.4, 0.15M NaCl, 0.1% PEG. Trypsin assays also contained 1 mM CaCl2.
"Sar" is the three letter abbreviation for the amino acid sarcosine (N-methylglycine). p-Nitroanilide substrate concentration was determined from measurements of absorbance at 342 nm using an extinction coefficient of 8270 cm^-1 M^-1.
Concentrations of stock solutions of Z-GPR-afc were determined from measurements of absorbance at 380 nm (extinction coefficient=12600 cm^-1 M^-1) of the 7-amino-4-trifluoromethyl coumarin produced upon complete hydrolysis of an aliquot of the stock solution by thrombin.
(§2) Times required to achieve equilibration between enzyme and inhibitor were determined in control experiments. Initial velocities of product formation in the absence (Vo) or presence of inhibitor (Vi) were measured. Assuming competitive inhibition, and that unity is negligible compared Km /[S], [S]/e, and [I]/e (where [S], [I], and e respectively represent the total concentrations, of substrate, inhibitor and enzyme), the equilibrium constant (Ki) for dissociation of the inhibitor from the enzyme can be obtained from the dependence of Vo /Vi on [I] shown in equation 1.
The constants were determined at pH 7.4 in buffer containing 0.05M Tris, 0.15M NaCl, 0.1% PEG-8000 at room temperature.

[2] = molecular target: T1, bovine trypsin (Bos taurus, UniProt P00760); test: Proteinase inhibition assay, bovine trypsin; assay type: biochemical
T1 sequence (P00760 24-246): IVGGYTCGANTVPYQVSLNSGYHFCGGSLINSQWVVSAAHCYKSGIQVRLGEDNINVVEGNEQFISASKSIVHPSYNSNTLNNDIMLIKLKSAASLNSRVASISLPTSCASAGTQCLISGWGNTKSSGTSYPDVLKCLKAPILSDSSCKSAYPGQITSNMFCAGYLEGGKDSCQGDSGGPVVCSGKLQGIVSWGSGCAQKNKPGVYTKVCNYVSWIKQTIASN
Procedure: as §1
In assays wherein rates of hydrolysis of a p-nitroanilide (pna) substrate were determined, a Thermomax 96-well plate reader was used was used to measure (at 405 nm) the time dependent appearance of p-nitroaniline. sar-PR-pna was used to assay human α-thrombin (Km =125 μM) and bovine trypsin (Km =125 μM). "Sar" is the three letter abbreviation for the amino acid sarcosine (N-methylglycine). p-Nitroanilide substrate concentration was determined from measurements of absorbance at 342 nm using an extinction coefficient of 8270 cm^-1 M^-1.
as §2
Using the assays described above, the following additional embodiments of the invention were evaluated and shown to be selective for inhibiting thrombin. The constants were determined at pH 7.4 in buffer containing 0.05M Tris, 0.15M NaCl, 0.1% PEG-8000 at room temperature.

[3] = molecular target: T2, Factor Xa (fXa) (Homo sapiens, UniProt P00742); test: Chromogenic assay, Factor Xa; assay type: biochemical; conditions: Table 3
T2 construct: Factor Xa (fXa), plasma kallikrein (p-Kal), plasmin (Pl)
T2 sequence (P00742 235-488 limits assumed): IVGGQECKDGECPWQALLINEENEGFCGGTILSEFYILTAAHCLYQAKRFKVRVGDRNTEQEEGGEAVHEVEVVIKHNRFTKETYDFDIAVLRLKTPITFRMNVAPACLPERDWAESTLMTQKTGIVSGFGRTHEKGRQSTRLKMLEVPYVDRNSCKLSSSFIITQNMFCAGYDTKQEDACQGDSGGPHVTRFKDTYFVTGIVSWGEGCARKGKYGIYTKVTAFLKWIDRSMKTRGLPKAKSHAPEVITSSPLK
T2 sequence (P00742 41-179 limits assumed): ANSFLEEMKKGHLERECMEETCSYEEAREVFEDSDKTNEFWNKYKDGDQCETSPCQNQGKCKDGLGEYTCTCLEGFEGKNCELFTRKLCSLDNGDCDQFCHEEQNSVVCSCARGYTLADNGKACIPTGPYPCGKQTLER

[4] = molecular target: T3, plasma kallikrein (p-Kal) (Homo sapiens, UniProt P03952); test: Chromogenic assay, plasma kallikrein; assay type: biochemical; conditions: Table 3
T3 construct: plasma kallikrein (p-Kal)
T3 sequence (P03952 391-638 limits assumed, species assumed): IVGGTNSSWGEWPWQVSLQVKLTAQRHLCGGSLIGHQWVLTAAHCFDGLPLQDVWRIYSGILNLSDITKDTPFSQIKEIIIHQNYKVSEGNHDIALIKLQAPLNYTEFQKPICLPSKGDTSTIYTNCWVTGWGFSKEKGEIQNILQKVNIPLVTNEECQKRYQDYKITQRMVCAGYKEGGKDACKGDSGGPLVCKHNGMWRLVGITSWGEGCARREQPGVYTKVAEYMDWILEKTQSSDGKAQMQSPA
T3 sequence (P03952 20-390 limits assumed, species assumed): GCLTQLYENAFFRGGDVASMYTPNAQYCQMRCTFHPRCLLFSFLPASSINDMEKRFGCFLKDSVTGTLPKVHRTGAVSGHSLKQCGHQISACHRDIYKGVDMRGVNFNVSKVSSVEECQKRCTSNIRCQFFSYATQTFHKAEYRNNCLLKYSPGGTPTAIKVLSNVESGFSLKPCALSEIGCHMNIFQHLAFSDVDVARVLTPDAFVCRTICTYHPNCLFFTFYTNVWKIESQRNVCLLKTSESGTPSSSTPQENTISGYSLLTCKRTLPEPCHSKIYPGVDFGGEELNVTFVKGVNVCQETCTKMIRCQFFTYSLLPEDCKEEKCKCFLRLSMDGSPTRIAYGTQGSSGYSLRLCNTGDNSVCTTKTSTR

[5] = molecular target: plasmin (Pl) (Homo sapiens, UniProt P00747); test: Chromogenic assay, plasmin; assay type: biochemical; conditions: Table 3
Chain of plasmin (Pl) (P00747 581-810 limits assumed, species assumed): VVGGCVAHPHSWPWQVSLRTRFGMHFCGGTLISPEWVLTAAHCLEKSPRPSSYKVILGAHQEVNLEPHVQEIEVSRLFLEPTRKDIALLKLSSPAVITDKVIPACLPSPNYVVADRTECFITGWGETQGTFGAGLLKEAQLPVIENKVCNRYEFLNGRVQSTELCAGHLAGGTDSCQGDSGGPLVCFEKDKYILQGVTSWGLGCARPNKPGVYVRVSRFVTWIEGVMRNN
Chain of plasmin (Pl) (P00747 97-580 limits assumed, species assumed): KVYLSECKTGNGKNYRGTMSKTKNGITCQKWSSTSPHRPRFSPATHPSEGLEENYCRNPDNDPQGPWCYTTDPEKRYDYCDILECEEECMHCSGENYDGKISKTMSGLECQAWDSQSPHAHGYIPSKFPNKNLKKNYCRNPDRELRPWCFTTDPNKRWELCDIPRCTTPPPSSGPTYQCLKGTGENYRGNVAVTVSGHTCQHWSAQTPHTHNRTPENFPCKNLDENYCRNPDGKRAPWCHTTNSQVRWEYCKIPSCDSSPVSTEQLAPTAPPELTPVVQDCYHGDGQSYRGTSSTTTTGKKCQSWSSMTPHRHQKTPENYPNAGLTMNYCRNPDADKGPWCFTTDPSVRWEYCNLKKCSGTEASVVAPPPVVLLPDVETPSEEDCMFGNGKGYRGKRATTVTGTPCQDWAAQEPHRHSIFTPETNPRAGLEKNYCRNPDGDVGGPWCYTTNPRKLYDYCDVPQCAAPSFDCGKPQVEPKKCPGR

[6] = molecular target: tissue plasminogen activator (t-PA) (Homo sapiens, UniProt P00750); test: Chromogenic assay, tissue plasminogen activator; assay type: biochemical; conditions: Table 3, read-out: Ki (nM) tPA
Chain of tissue plasminogen activator (t-PA) (P00750 36-562, species assumed): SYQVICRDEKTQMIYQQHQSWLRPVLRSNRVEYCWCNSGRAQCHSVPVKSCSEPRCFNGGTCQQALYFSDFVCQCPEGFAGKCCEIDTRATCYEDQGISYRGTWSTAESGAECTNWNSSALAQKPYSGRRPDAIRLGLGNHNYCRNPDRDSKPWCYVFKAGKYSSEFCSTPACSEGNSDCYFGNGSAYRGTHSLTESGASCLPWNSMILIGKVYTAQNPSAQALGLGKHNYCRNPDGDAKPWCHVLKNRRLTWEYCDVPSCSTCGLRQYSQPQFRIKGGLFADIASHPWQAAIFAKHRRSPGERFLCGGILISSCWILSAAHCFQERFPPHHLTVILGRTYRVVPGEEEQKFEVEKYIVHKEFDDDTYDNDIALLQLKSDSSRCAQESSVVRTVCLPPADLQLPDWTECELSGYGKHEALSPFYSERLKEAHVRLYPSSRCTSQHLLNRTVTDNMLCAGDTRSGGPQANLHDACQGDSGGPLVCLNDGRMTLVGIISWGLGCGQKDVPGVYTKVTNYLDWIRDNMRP

[7] = molecular target: activated protein C (APC) (Homo sapiens, UniProt P04070); test: Chromogenic assay, activated protein C; assay type: biochemical; conditions: Table 3
Chain of activated protein C (APC) (P04070 212-461 limits assumed): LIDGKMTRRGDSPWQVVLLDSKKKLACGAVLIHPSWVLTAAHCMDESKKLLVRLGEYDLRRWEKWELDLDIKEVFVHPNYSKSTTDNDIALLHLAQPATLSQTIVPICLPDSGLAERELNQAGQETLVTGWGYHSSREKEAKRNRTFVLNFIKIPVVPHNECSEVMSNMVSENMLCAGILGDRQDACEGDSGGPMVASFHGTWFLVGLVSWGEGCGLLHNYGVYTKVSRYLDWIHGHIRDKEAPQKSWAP
Chain of activated protein C (APC) (P04070 43-197 limits assumed): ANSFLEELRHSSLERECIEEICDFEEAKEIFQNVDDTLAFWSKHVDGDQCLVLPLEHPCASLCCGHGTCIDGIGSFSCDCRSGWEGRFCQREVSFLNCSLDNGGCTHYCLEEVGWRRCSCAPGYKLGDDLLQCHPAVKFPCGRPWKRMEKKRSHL

[8] = system: FeCl3 induced arterial thrombosis in rats; test: Rat ferric chloride assay; assay type: in vivo
Procedure: In the assay, male Sprague-Dawley rats (body weights 200-350 grams) were anesthetized with dial-urethane solution (0.1 ml/100 gm body weight i.p.), and a lateral tail vein was cannulated with a 23 gauge needle connected to a 12 inch length of PE50 robing. The robing was attached to a 3-way valve by a tubing adapter. Saline (control) or test compound, as appropriate, was administered via the tail vein catheter. A tracheostomy was performed with a 0.75 inch length of PE205 tubing. The right carotid artery was exposed and a 1.3 mm diameter Doppler flow probe was placed on the vessel. Body temperature was maintained at 37° C. using a heat lamp.
Rats (8-10/group) were randomized to continuous intravenous infusions of saline or test compound administered via the tail vein at a rate of 0.028 ml/min. Treatment infusions were initiated 60 min before the placement of a 3 mm square piece of Whatman No. 1 filter paper saturated with 35% FeCl3 onto the exposed carotid artery distal to the flow probe. […] Time to occlusion was defined as the time from application of FeCl3 to thrombotic occlusion of the vessel.

[9] = Oral bioavailability in rats; assay type: in vivo; conditions: rat, oral (gastric lavage), plasma
Procedure: (§3) Concentration was determined in animal plasma after oral (gastric lavage) administration.
Rats were anesthetized and instrumented with indwelling left jugular vein and left carotid artery catheters for test agent administration and for serial blood sampling, respectively. One day after instrumentation, blood samples were obtained before saline or inhibitor administration and at increasing time points after the oral administration.
(§4) Thrombin inhibitor concentrations in plasma were determined by the inactivation of a known amount of thrombin (where [thrombin]>>Ki of inhibitor) from an aliquot of acid-neutralized rat plasma. 0.25 ml of rat platelet poor plasma was mixed with 25 μl of 3M perchloric acid. The sample was centrifuged (14,000×g for 10 minutes) and 0.2 ml of the supernatant was neutralized with 0.43 ml of 1M TrisB 0.15M NaCl/0.1% PEG 8000 pH 7.8. 50-100 μl of acid-neutralized rat plasma was mixed with 50-100 μl of 0.03-3 μM thrombin. After equilibration, 5-10 μl of 5 mM Sar-Pro-Arg-pna (for <0.1 μM thrombin) or Spectrozyme PCa (for >0.1 μM thrombin) was added. The observed inhibited velocity was compared to inhibited velocities from a standard curve generated from rat plasma containing known amounts of inhibitor treated in an identical manner. The table below summarizes the results from these studies.

[10] = Oral bioavailability in dogs; assay type: in vivo; conditions: dog, oral (gastric lavage), plasma
Procedure: as §3
In dogs, the test agent was administered intravenously as a bolus or orally by gastric lavage. For intravenous studies, the sterile agent is dissolved in sterile 0.9% saline and administered via 19 g butterfly, usually via the saphenous vein. For oral studies, the sterile agent was dissolved in sterile water and administered via a feeding tube. Blood samples (5 cc each) were collected with a plastic syringe containing 3.8% sodium citrate via venipuncture (at sites other than that of drug administration) for drug plasma levels and thrombin clotting time assay. Dogs were allowed to recover 14 days before being used again in a similar protocol.
as §4, with “The observed inhibited velocity was compared to inhibited velocities from a standard curve generated from rat plasma containing known amounts of inhibitor treated in an identical manner. The table below summarizes the results from these studies.” left out

[11] = Oral bioavailability in rhesus monkeys; assay type: in vivo, rhesus monkey; conditions: oral (nasogastric tube), plasma
Procedure: as §3
In monkeys, the test agent was administered intravenously as a bolus or orally by pediatric nasogastric tube. For intravenous studies, the sterile agent was dissolved in sterile 0.9% saline and administered via 21 g butterfly, usually via the brachial vein. For oral studies, the sterile agent was dissolved in sterile water and administered via a nasogastric tube. Blood samples (4 cc each) were collected with a plastic syringe containing 3.8% sodium citrate via venipuncture (at sites other than that of drug administration) for drug plasma levels and thrombin clotting time assay. The monkeys were given water ad lib. Monkeys were allowed to recover 14 days before being used again in a similar protocol.
Thrombin inhibitor concentrations in plasma were determined by the inactivation of a known amount of thrombin (where [thrombin]>>Ki of inhibitor) from an aliquot of acid-neutralized rat plasma. 0.25 ml of rat platelet poor plasma was mixed with 25 μl of 3M perchloric acid. The sample was centrifuged (14,000×g for 10 minutes) and 0.2 ml of the supernatant was neutralized with 0.43 ml of 1M TrisB 0.15M NaCl/0.1% PEG 8000 pH 7.8. 50-100 μl of acid-neutralized rat plasma was mixed with 50-100 μl of 0.03-3 μM thrombin. […]

[12] = Table 2, pH 7.4, 0.05M Tris, 0.15M NaCl, 0.1% PEG-8000, room temperature, read-out: Ki (nM) Thrombin
[13] = Table 2, pH 7.4, 0.05M Tris, 0.15M NaCl, 0.1% PEG-8000, room temperature, read-out: Ki (nM) Trypsin
[14] = Table 1, 25° C., 0.05M TRIS pH 7.4, 0.15M NaCl, 0.1% PEG, read-out: Ki (μM) Thrombin
[15] = Table 1, 25° C., 0.05M TRIS pH 7.4, 0.15M NaCl, 0.1% PEG, 1 mM CaCl2, read-out: Ki (μM) Trypsin

SMILES | Ki [1, 12] [nM] | Ki [2, 13] [nM] | Ki [3] [nM] | Ki [4] [nM] | Ki [5] [nM] | Ki [6] [nM] | Ki [7] [nM] | also measured
CNC(=O)C(=O)C(NC(=O)C1CCCN1C(=O)C(Cc1ccc2ccccc2c1)NC)C1CCC(N)CC1 (stereo not shown) [xiv] | 0.09 | 2100 | 9000 | > 10000 | > 10000 | > 10000 | > 10000 | –
CNC(=O)C(=O)C(NC(=O)C1CCCN1C(=O)CCC1CCCCC1)C1CCC(N)CC1 (stereo not shown) [xiii] | 2.2 | 4000 | > 10000 | > 10000 | > 10000 | > 10000 | > 10000 | –
CNC(Cc1ccccc1)C(=O)N1CCCC1C(=O)NC(C(=O)C(=O)O)C1CCC(N)CC1 (racemic) [3-3, H-NMe-D-Phe-Pro-t-DL-AcgY[COCO]--OH] | – | – | > 10000 | 7000 | > 10000 | > 10000 | > 10000 | Ki [1, 14]: 0.05 nM; Ratio ([1]; Table 1): 1000; Ki [2, 15]: 51 nM; Incidence of occlusion ([8]; 10 μg/kg/min i.v. infusion): 3/4; Minutes to occulsion of those occluding ([8]; 10 μg/kg/min i.v. infusion): 22 to 24 min; Incidence of occlusion ([8]; 20 μg/kg/min i.v. infusion): 0/4; Incidence of occlusion ([8]; 50 μg/kg/min i.v. infusion): 0/4
CNC(=O)C(=O)C(NC(=O)C1CCCN1C(=O)C(CC1CCCCC1)NC)C1CCC(N)CC1 (stereo not shown) [x] | 0.07 | 310 | 3000 | > 10000 | 6000 | > 10000 | > 10000 | –
CNC(=O)C(=O)C(NC(=O)C1CCCN1C(=O)C(Cc1ccc(Cl)c(Cl)c1)NC)C1CCC(N)CC1 (stereo not shown) [xii] | 0.025 | 660 | 2300 | > 10000 | > 10000 | > 10000 | > 10000 | –
CNC(=O)C(=O)C(NC(=O)C1CCCN1C(=O)C(Cc1ccccc1)NC)C1CCC(N)CC1 [4-3, H-NMe-D-Phe-Pro-t-D-Acg.PSI.[COCO]--NHMe] | – | – | – | – | – | – | – | Ki ([2]; Table 1, 25° C., 0.05M TRIS pH 7.4, 0.15M NaCl, 0.1% PEG, 1 mM CaCl2, listed as drawing 21, read-out: Ki (μM) Trypsin): 7000 nM
CNC(=O)C(=O)C(NC(=O)C1CCCN1C(=O)CC(c1ccccc1)c1ccccc1)C1CCC(N)CC1 (mixture of isomers) [xv] | 0.03 | 2000 | > 10000 | > 10000 | > 10000 | > 10000 | > 10000 | –
CNC(=O)C(=O)C(CC1CCC(N)CC1)NC(=O)C1CCCN1C(=O)C(Cc1ccccc1)NC (stereo not shown) [vi] | – | – | – | – | – | – | – | Ki [1, 14]: 52 nM; Ratio ([1]; Table 1): 28; Ki [2, 15]: 1440 nM
CNC(=O)C(=O)C(NC(=O)C1CCCN1C(=O)C(Cc1ccccc1)NC)C1CCC(N)CC1 [4-4, H-NMe-D.-Phe-Pro-t-L-Acg.PSI.[COCO]--NHMe] | – | – | > 10000 | > 10000 | > 10000 | > 10000 | > 10000 | Ki ([2]; Table 1, 25° C., 0.05M TRIS pH 7.4, 0.15M NaCl, 0.1% PEG, 1 mM CaCl2, listed as drawing 22, read-out: Ki (μM) Trypsin): 1150 nM; Incidence of occlusion ([8]; 1 μg/kg/min i.v. infusion): 3/4; Minutes to occulsion of those occluding ([8]; 1 μg/kg/min i.v. infusion): 21 min; Incidence of occlusion ([8]; 5 μg/kg/min i.v. infusion): 2/4; Minutes to occulsion of those occluding ([8]; 5 μg/kg/min i.v. infusion): 18 to 20 min; Incidence of occlusion ([8]; 10 μg/kg/min i.v. infusion): 0/4; % bioavailable [9]: 5%; % bioavailable [10]: 8%; % bioavailable [11]: 5%
CNC(=O)C(=O)C(NC(=O)C1CCCN1C(=O)CCc1ccc(Cl)c(Cl)c1)C1CCC(N)CC1 (stereo not shown) [xi] | 0.4 | > 10000 | > 10000 | > 10000 | > 10000 | > 10000 | > 10000 | –
CNC(=O)C(=O)C(NC(=O)C1CCCN1C(=O)CCc1ccccc1)C1CCC(N)CC1 (mixture of isomers) [ix] | 4 | > 10000 | > 10000 | > 10000 | > 10000 | > 10000 | > 10000 | –
CNC(Cc1ccccc1)C(=O)N1CCCC1C(=O)NC(C(=O)C(=O)N1CCC1)C1CCC(N)CC1 (mixture of isomers) [xviii] | 0.04 | 760 | > 10000 | > 10000 | > 10000 | > 10000 | > 10000 | –
CNC(Cc1ccccc1)C(=O)N1CCCC1C(=O)NC(C(=O)C(=O)NCc1ccccc1)C1CCC(N)CC1 (mixture of isomers) [xvi] | 0.6 | 120 | > 10000 | > 10000 | > 10000 | > 10000 | > 10000 | –
CNC(Cc1ccccc1)C(=O)N1CCCC1C(=O)NC(C(=O)C(=O)NC1CC1)C1CCC(N)CC1 (mixture of isomers) [xvii] | 0.07 | 120 | > 10000 | 9000 | > 10000 | > 10000 | > 10000 | –
